IC50 data for nine molecules are collected here from US20260022142A1, “MACROCYCLIC IMMUNOMODULATORS” (Bristol-Myers Squibb Company, priority 2022, published 2026).

Bridge positions count the residues as written; N and C are the ends. Square brackets hold non-standard residues; d marks the D form. Peptide text beside a SMILES is read from it. * marks the point of attachment. Phe(4-COOH) = N[C@@H](Cc1ccc(C(=O)O)cc1)C(=O)O; Bip = N[C@@H](Cc1ccc(-c2ccccc2)cc1)C(=O)O; Pro(4R-NH2) = N[C@H]1CN[C@H](C(=O)O)C1; 4Pal = N[C@@H](Cc1ccncc1)C(=O)O; Cha = N[C@@H](CC1CCCCC1)C(=O)O; Cit = NC(=O)NCCC[C@H](N)C(=O)O; Carboxymethyl = O=C(O)C*; Orn = NCCC[C@H](N)C(=O)O; Aun = NCCCCCCCCCCC(=O)O; Dab = NCC[C@H](N)C(=O)O; Dap = NC[C@H](N)C(=O)O; AEEA = NCCOCCOCC(=O)O

In this assay the target is T1, PD-1/PD-L1 interaction (PE-labeled human PD-L1-Ig binding to Jurkat cell line over-expressing human PD-1) (Homo sapiens, UniProt Q15116).
T1 construct: expressed in transfected cells; host or cells: Jurkat
T1 sequence (Q15116 25-288): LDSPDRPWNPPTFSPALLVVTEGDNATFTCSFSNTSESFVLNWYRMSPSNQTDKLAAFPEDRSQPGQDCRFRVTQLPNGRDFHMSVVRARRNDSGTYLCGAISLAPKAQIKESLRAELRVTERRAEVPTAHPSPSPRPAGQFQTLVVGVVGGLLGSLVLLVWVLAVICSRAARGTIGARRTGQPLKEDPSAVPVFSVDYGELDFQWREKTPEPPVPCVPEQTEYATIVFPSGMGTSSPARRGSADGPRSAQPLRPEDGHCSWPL
Nature of the assay: Jurkat-PD-1 Cell Binding High-Content Screening Assay (CBA). The note with it: Jurkat cell line over-expressing human PD-1; PE-labeled PD-L1-Ig 20 nM final; read-out: Jurkat hPD1-PDL1 IC50. The class given is cell-based. The essentials: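 First, compound is added to PD-1-expressing Jurkat cells in serum-containing DMEM and left 2 h at 37° C. Next, PE-conjugated PD-L1-Ig is introduced at 20 nM final concentration for 1 hour. Finally, cells are fixed in 4% paraformaldehyde with Hoechst 33342, washed and imaged.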
What is called IC50 is the concentration at which inhibition is half-maximal. As to `CC(C)C[C@H]1NC(=O)[C@H](CCCN)NC(=O)[C@H](C(C)C)NC(=O)[C@H](Cc2ccc(-c3ccccc3)cc2)NC(=O)[C@H](C(C)C)NC(=O)[C@H](Cc2c[nH]c3ccccc23)NC(=O)[C@H](CC(=O)O)NC(=O)[C@H](Cc2ccc(C(=O)O)cc2)NC(=O)[C@H](Cc2ccncc2)NC(=O)CSC[C@@H](C(=O)NCC(=O)NCCOCCOCC(=O)N[C@@H](CCCN)C(=O)NCCCCCCCCCCC(=O)O)NC(=O)[C@H](CN)NC(=O)[C@H](C(C)C)NC(=O)[C@H](CC2CCCCC2)NC(=O)[C@H](CCN)NC1=O` [Compound 3234] ({CH2CO}-[4Pal][Phe(4-COOH)]DWV[Bip]V[Orn][dL][Dab][Cha]V[Dap]CG[AEEA][Orn][Aun]-OH; thioether N-14), the IC50 is 7.3 nM. To `CC(C)C[C@H]1NC(=O)[C@H](CCCN)NC(=O)[C@H](C(C)C)NC(=O)[C@H](Cc2ccc(-c3ccccc3)cc2)NC(=O)[C@H](C(C)C)NC(=O)[C@H](Cc2c[nH]c3ccccc23)NC(=O)[C@H](CC(=O)O)NC(=O)[C@H](Cc2ccc(OCC(=O)O)cc2)NC(=O)[C@H](Cc2ccncc2)NC(=O)CSC[C@@H](C(=O)NCC(=O)NCCOCCOCC(=O)N[C@@H](CCCN)C(=O)NCCCCCCCCCCC(=O)O)NC(=O)[C@H](CCCNC(N)=O)NC(=O)[C@H](C(C)C)NC(=O)[C@H](CC2CCCCC2)NC(=O)[C@H](CCN)NC1=O` [Compound 3235] ({CH2CO}-[4Pal]Y(Carboxymethyl)DWV[Bip]V[Orn][dL][Dab][Cha]V[Cit]CG[AEEA][Orn][Aun]-OH; thioether N-14) belongs 5.7 nM; to `CC(C)C[C@H]1NC(=O)[C@H](CCCN)NC(=O)[C@H](C(C)C)NC(=O)[C@H](Cc2ccc(-c3ccccc3)cc2)NC(=O)[C@H](C(C)C)NC(=O)[C@H](Cc2c[nH]c3ccccc23)NC(=O)[C@H](CC(=O)O)NC(=O)[C@H](Cc2ccc(OCC(=O)O)cc2)NC(=O)[C@H](Cc2ccncc2)NC(=O)CSC[C@@H](C(=O)NCC(=O)NCCOCCOCC(=O)N[C@@H](CCCN)C(=O)NCCCCCCCCCCC(=O)O)NC(=O)[C@H](CCN)NC(=O)[C@H](C(C)C)NC(=O)[C@H](CC2CCCCC2)NC(=O)[C@H](CCN)NC1=O` [Compound 3236] ({CH2CO}-[4Pal]Y(Carboxymethyl)DWV[Bip]V[Orn][dL][Dab][Cha]V[Dab]CG[AEEA][Orn][Aun]-OH; thioether N-14), 3.9 nM. On to `CC(C)C[C@H]1NC(=O)[C@H](CCCN)NC(=O)[C@H](C(C)C)NC(=O)[C@H](Cc2ccc(-c3ccccc3)cc2)NC(=O)[C@H](C(C)C)NC(=O)[C@H](Cc2c[nH]c3ccccc23)NC(=O)[C@H](CC(=O)O)NC(=O)[C@H](Cc2ccc(OCC(=O)O)cc2)NC(=O)[C@H](Cc2ccncc2)NC(=O)CSC[C@@H](C(=O)NCC(=O)NCCOCCOCC(=O)N[C@@H](CCCN)C(=O)NCCCCCCCCCCC(=O)O)NC(=O)[C@H](CCN)NC(=O)[C@H](C(C)C)NC(=O)[C@H](CC2CCCCC2)NC(=O)[C@@H]2C[C@@H](N)CN2C1=O` [Compound 3237] ({CH2CO}-[4Pal]Y(Carboxymethyl)DWV[Bip]V[Orn][dL][Pro(4R-NH2)][Cha]V[Dab]CG[AEEA][Orn][Aun]-OH; thioether N-14), for which the IC50 is 159 nM. In the case of `CC(C)C[C@H]1NC(=O)[C@H](CCCN)NC(=O)[C@H](C(C)C)NC(=O)[C@H](Cc2ccc(-c3ccccc3)cc2)NC(=O)[C@H](C(C)C)NC(=O)[C@H](Cc2c[nH]c3ccccc23)NC(=O)[C@H](CC(=O)O)NC(=O)[C@H](Cc2ccc(OCC(=O)O)cc2)NC(=O)[C@H](CCCNC(=N)N)NC(=O)CSC[C@@H](C(=O)NCC(=O)NCCOCCOCC(=O)N[C@@H](CCCN)C(=O)NCCCCCCCCCCC(=O)O)NC(=O)[C@H](CN)NC(=O)[C@H](C(C)C)NC(=O)[C@H](CC2CCCCC2)NC(=O)[C@H](CCN)NC1=O` [Compound 3238] ({CH2CO}-RY(Carboxymethyl)DWV[Bip]V[Orn][dL][Dab][Cha]V[Dap]CG[AEEA][Orn][Aun]-OH; thioether N-14) it was 11.7 nM; in that of `CC(C)C[C@H]1NC(=O)[C@H](CCCN)NC(=O)[C@H](C(C)C)NC(=O)[C@H](Cc2ccc(-c3ccccc3)cc2)NC(=O)[C@H](C(C)C)NC(=O)[C@H](Cc2c[nH]c3ccccc23)NC(=O)[C@H](CC(=O)O)NC(=O)[C@H](Cc2ccc(C(=O)O)cc2)NC(=O)[C@H](CCCNC(=N)N)NC(=O)CSC[C@@H](C(=O)NCC(=O)NCCOCCOCC(=O)N[C@@H](CCCN)C(=O)NCCCCCCCCCCC(=O)O)NC(=O)[C@H](CN)NC(=O)[C@H](C(C)C)NC(=O)[C@H](CC2CCCCC2)NC(=O)[C@H](CCN)NC1=O` [Compound 3239] ({CH2CO}-R[Phe(4-COOH)]DWV[Bip]V[Orn][dL][Dab][Cha]V[Dap]CG[AEEA][Orn][Aun]-OH; thioether N-14), 11.4 nM; in that of `CC(C)C[C@H]1NC(=O)[C@H](CCCN)NC(=O)[C@H](C(C)C)NC(=O)[C@H](Cc2ccc(-c3ccccc3)cc2)NC(=O)[C@H](C(C)C)NC(=O)[C@H](Cc2c[nH]c3ccccc23)NC(=O)[C@H](CC(=O)O)NC(=O)[C@H](Cc2ccc(OCC(=O)O)cc2)NC(=O)[C@H](CCCNC(=N)N)NC(=O)CSC[C@@H](C(=O)NCC(=O)NCCOCCOCC(=O)N[C@@H](CCCN)C(=O)NCCCCCCCCCCC(=O)O)NC(=O)[C@H](CCN)NC(=O)[C@H](C(C)C)NC(=O)[C@H](CC2CCCCC2)NC(=O)[C@H](CCN)NC1=O` [Compound 3241] ({CH2CO}-RY(Carboxymethyl)DWV[Bip]V[Orn][dL][Dab][Cha]V[Dab]CG[AEEA][Orn][Aun]-OH; thioether N-14), 11.7 nM. To `CC(C)C[C@H]1NC(=O)[C@H](CCCN)NC(=O)[C@H](C(C)C)NC(=O)[C@H](Cc2ccc(-c3ccccc3)cc2)NC(=O)[C@H](C(C)C)NC(=O)[C@H](Cc2c[nH]c3ccccc23)NC(=O)[C@H](CC(=O)O)NC(=O)[C@H](Cc2ccc(OCC(=O)O)cc2)NC(=O)[C@H](CCCNC(=N)N)NC(=O)CSC[C@@H](C(=O)NCC(=O)NCCOCCOCC(=O)N[C@@H](CCCN)C(=O)NCCCCCCCCCCC(=O)O)NC(=O)[C@H](CCN)NC(=O)[C@H](C(C)C)NC(=O)[C@H](CC2CCCCC2)NC(=O)[C@@H]2C[C@@H](N)CN2C1=O` [Compound 3242] ({CH2CO}-RY(Carboxymethyl)DWV[Bip]V[Orn][dL][Pro(4R-NH2)][Cha]V[Dab]CG[AEEA][Orn][Aun]-OH; thioether N-14) belongs 700 nM. `CC(C)C[C@H]1NC(=O)[C@H](CCN)NC(=O)[C@H](C(C)C)NC(=O)[C@H](Cc2ccc(-c3ccccc3)cc2)NC(=O)[C@H](C(C)C)NC(=O)[C@H](Cc2c[nH]c3ccccc23)NC(=O)[C@H](CC(=O)O)NC(=O)[C@H](Cc2ccc(C(=O)O)cc2)NC(=O)[C@H](Cc2ccc(OCC(=O)O)cc2)NC(=O)CSC[C@@H](C(=O)N[C@@H](CCN)C(=O)NCCOCCOCC(=O)NCCCCCCCCCCC(=O)O)NC(=O)[C@H](CCCN)NC(=O)[C@H](C(C)C)NC(=O)[C@H](CC2CCCCC2)NC(=O)[C@H](CCN)NC1=O` [Compound 3243] ({CH2CO}-Y(Carboxymethyl)[Phe(4-COOH)]DWV[Bip]V[Dab][dL][Dab][Cha]V[Orn]C[Dab][AEEA][Aun]-OH; thioether N-14): the IC50 is 10.9 nM.
